Patent US11351185B2, “Use of isovalerylspiramycins as anti-cancer agents to inhibit metastasis” (priority 2020, dated 2022)
Entries after “also recorded” stand apart in the source; their conditions may differ.

Experiments:
[1] = test system: U2OS cell line; experiment: R-loop and EdU staining in U2OS cells; type: cell-based, Human; details: 6 hours
Description: In order to assess ISP I's effect within the nuclear compartment, the inventors evaluated DNA-RNA R-loop formation within ISP I-treated Human Bone Osteosarcoma Epithelial Cells (U2OS cell line). R-loops are DNA-RNA hybrid structures composed of a displaced single-stranded DNA hybridized with the nascent RNA transcript. Santo-Pereira et al., Nat. Rev. Genet. 16: 583 (2015). […] Teng et al., Nature communications 9: 4115 (2018).
U2OS cells obtained from ATCC were transfected with plasmid containing RNaseH1 construct mutated at D210N (Addgene #111904) and WKKD (Addgene #111905). Stable monoclonal cells were selected with hygromycin.
EdU and R-loop staining for U2OS cells was conducted as follows: U2OS cells were incubated with EdU for 20 min and washed with a brief PBS wash. These cells were then pre-extracted in PBS-T buffer (0.2% Triton X-100 in 1×PBS, phenylmethylsulphonylfluoride [PMSF], protease inhibitor cocktail (Sigma, P8340) and phosphatase inhibitor cocktail (Roche, P4906845001)) for 3 min on ice and washed with a brief PBS wash. Pre-extracted cells were fixed using 2.0% paraformaldehyde (PFA) solution in PBS. EdU staining was performed according to the manufacturer's instructions. Primary antibody staining was performed as follows: anti-V5-tag (Santacruz, sc-271926, 1:250 dilution). Secondary antibody staining was performed as follows: Alexa 568 conjugated anti-mouse IgG (1:500, ThermoFisher Scientific). A Zeiss LSM710 confocal microscopy was used for imaging. Images where scored in ZenBlue software by counting non-nucleolar R-loops foci, where nucleoli were masked based on intensity and size of R-loop staining and number of foci counted in the rest of the nucleus.

[2] = test system: SELH-deficient LN229 cells; experiment: CCK8 assay in SELH-deficient (CRISPR/CAS9) LN229 cells; type: cell-based; details: LN229 SELH knock out
Description: SELH knockout LN229 cell lines and B16 were generated using the CRISPR/Cas9 technique described by Shalem et al., Science 343: 84 (2014). The gDNA for targeting SELH was designed as follows: Oligo 1, 5′-[…]-3′; Oligo 2, 5′-[…]-3′; the gDNA for targeting mouse SELH was designed as follows: Oligo 1, 5′-[…]-3′; Oligo 2, 5′-[…]-3′, and subcloned into Cas9 carrying vector (pX330). The two resultant plasmids and puromycin-expressing vector (pPGK-puro) were co-transfected at a ratio of 1:1:1 into LN229 or B16 cells using Lipofectamine 2000 (Invitrogen). Twenty-four hours later, the transfected cells were subjected to puromycin (Sigma) at 1 μg/mL for 7 days. One week after selection, the surviving clones were expanded, followed by extraction of total protein for standard western blotting analysis.
Cell viability was measured by Cell Counting Kit-8 (CCK-8, Dojindo Molecular Technologies, Tokyo, Japan). Cells were seeded in 96-well plates at a density of 3×10^3 cells/well and cultured for 24 hours before treatment with ISP I at different concentration. […] The absorbance in each well at a wavelength of OD450 was detected by the Synergy H1 microplate reader, a product of BioTek (Winooski, Vt. USA).

[3] = test system: 786-O and RCC4 cells; experiment: Annexin V apoptosis flow cytometry, RCC cells; type: cell-based
Protocol: To confirm the cytotoxic effect observed in the glioblastoma cell lines, the inventors assessed ISP I's effect on renal cell carcinoma (RCC) cell lines (ACHN, UM-RC-2, RCC4 and 786-0). Cell viability was assessed similarly via CKK8 analysis. […] (FIG. 4C, D).
Cells (2×10^5) were plated in 6-well plates and treated with different concentrations of ISP I. Then the cells were harvested and washed three times with PBS. Cells were resuspended in 100 μl binding buffer and were incubated with 5 μl APC-conjugated Annexin V working solution, a product of BD bioscience (Franklin Lakes, N.J. USA), and 1 μl propidium iodide (PI), a product of Invitrogen, for 15 min at room temperature with protection from light. Data acquisition and quantification were processed with BD LSRFortessa flow cytometer, using FlowJo software (Ashland, Oreg. USA).

[4] = Tolerability in xenograft mouse models (bodyweight, histopathology, clinical chemistry); type: in vivo, mice
[5] = test system: intracellular ROS; experiment: ROS-Glo H2O2 assay; type: cell-based; details: 24 hours
Protocol: Since glutathione peroxidase catalyzes the reduction of reactive oxidative species (ROS), the inventors assessed whether treatment with ISP I increased the generation of ROS in glioblastoma cell lines (LN229 and U251) and RCC cell lines (786-O and RCC4).
Cell ROS level change brought about by ISP I was measured by ROS-Glo H2O2 assay kit, a product of Promega (Madison, Wis. USA). After treatment with ISP I for 24 hours, H2O2 substrate was added and cells were incubated for 6 hours. After incubation the supernatant was collected and was incubated with ROS-Glo™ Detection Solution for 20 min at room temperature with protection from light. Luciferase data were obtained with the Synergy H1 microplate reader, a product of BioTek (Winooski, Vt. USA).

[6] = LN229, 786-O and IOMM xenograft mouse models

## COC1C(O)CC(=O)OC(C)CC=CC=CC(OC2CCC(N(C)C)C(C)O2)C(C)CC(CC=O)C1OC1OC(C)C(OC2CC(C)(O)C(OC(=O)CC(C)C)C(C)O2)C(N(C)C)C1O (centres unmarked) [ISP I, 4″-isolvalerylspiramycin I]
[1]
  EdU incorporation (DNA replication): reduced EdU (DNA replication marker) incorporation into DNA in a dose-dependent manner
  R-loop formation: increased R-loop accumulation
[1]; listed as ISP 1
  EdU incorporation (DNA replication): reduction in EdU incorporation
  R-loop formation: increase of R-Loops formation
[2]
  sensitivity of SELH-deficient cells vs wild type (CCK8): resistance to ISP I; also recorded: SELH-deficient cells were resistant to ISP I treatment
[3]
  apoptosis (Annexin V stain): induced a dose-dependent apoptosis
[4]; 24 days after treatment
  histopathology of major organs and standard clinical chemistry: no hematologic, renal, pancreatic or liver toxicities
[4]; [6]
  bodyweight during treatment: bodyweight maintenance; also recorded: animals maintained their bodyweight
  tolerability of treatment: well-tolerated
[5]; 786-O and RCC4, 10 μg/ml
  intracellular ROS level (ROS-Glo H2O2): increased intracellular ROS levels
[5]; LN229 and U251, 10 μg/mL
  intracellular ROS level (ROS-Glo H2O2): increased intracellular ROS levels
